Results taken from ChEMBL document CHEMBL2074548, “Transport of digoxin by human P-glycoprotein expressed in a porcine kidney epithelial cell line (LLC-PK1)” (J Pharmacol Exp Ther, 1992).

Assays:
[1] = target: T1, ATP-dependent translocase ABCB1 (Homo sapiens, UniProt P08183); assay: TP_TRANSPORTER: transepithelial transport (basal to apical) in MDR1-expressing LLC-PK1 cells; type: functional, cell-based; settings: pig
[2] = target: T1, ATP-dependent translocase ABCB1; assay: TP_TRANSPORTER: inhibition of Digoxin transepithelial transport (basal to apical)(Digoxin: 0.1uM, Vinblastine: 20 uM) in MDR1-expressing LLC-PK1 cells; type: functional, cell-based; settings: pig, llc-pk1, 20 µM

T1 sequence (P08183 whole entry): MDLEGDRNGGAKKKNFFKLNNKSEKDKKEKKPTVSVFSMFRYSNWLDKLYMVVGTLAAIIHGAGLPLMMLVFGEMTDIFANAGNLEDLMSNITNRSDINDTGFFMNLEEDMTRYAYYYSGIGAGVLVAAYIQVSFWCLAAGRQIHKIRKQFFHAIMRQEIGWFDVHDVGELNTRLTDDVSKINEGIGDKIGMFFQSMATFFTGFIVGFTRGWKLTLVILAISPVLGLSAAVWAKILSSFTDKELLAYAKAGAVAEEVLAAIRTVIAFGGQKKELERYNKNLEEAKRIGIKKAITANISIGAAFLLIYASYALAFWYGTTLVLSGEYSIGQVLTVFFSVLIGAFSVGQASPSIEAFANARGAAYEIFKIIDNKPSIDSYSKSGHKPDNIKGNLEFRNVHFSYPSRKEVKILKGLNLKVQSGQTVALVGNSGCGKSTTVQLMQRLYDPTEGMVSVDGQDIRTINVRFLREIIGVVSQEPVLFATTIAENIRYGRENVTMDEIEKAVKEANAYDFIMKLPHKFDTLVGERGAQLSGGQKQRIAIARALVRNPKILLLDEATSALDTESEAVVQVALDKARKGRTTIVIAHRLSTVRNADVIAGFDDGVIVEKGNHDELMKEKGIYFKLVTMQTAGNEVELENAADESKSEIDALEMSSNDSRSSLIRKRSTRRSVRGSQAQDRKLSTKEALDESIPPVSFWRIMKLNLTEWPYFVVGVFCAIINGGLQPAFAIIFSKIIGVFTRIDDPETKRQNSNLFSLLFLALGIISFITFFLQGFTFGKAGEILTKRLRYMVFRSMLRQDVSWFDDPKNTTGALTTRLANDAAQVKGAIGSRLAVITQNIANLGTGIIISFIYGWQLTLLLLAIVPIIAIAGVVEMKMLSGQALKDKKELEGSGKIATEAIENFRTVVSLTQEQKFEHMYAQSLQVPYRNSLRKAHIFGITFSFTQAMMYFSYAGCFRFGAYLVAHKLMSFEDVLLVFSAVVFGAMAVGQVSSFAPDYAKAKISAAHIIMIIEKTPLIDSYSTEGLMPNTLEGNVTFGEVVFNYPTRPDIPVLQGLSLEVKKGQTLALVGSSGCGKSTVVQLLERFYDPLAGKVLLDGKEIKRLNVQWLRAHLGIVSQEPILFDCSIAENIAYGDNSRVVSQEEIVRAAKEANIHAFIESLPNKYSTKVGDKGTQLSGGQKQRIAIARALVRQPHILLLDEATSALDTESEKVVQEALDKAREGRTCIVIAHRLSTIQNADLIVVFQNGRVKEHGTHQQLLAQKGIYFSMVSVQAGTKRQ

Activity [1] | Activity [2] | Structure (SMILES)
substrate [+] | – | C[C@H]1O[C@@H](O[C@H]2[C@@H](O)C[C@H](O[C@H]3[C@@H](O)C[C@H](O[C@H]4CC[C@@]5(C)[C@H](CC[C@@H]6[C@@H]5C[C@@H](O)[C@]5(C)[C@@H](C7=CC(=O)OC7)CC[C@]65O)C4)O[C@@H]3C)O[C@@H]2C)C[C@H](O)[C@@H]1O [DIGOXIN]
– | inhibitor [+] | CC[C@]1(O)C[C@@H]2CN(CCc3c([nH]c4ccccc34)[C@@](C(=O)OC)(c3cc4c(cc3OC)N(C)[C@H]3[C@@](O)(C(=O)OC)[C@H](OC(C)=O)[C@]5(CC)C=CCN6CC[C@]43[C@@H]65)C2)C1 [VINBLASTINE]
